According to PMC7873978, “A Novel Lipoate-Protein Ligase, Mhp-LplJ, Is Required for Lipoic Acid Metabolism in Mycoplasma hyopneumoniae” (Frontiers in Microbiology, 2021):

Key:
[1] = target: T1, Mhp-LplJ (lipoate-protein ligase, MHP_RS00640) (Mesomycoplasma hyopneumoniae, UniProt E4QSS7); assay: SPR (Biacore 8K), single-site affinity fit; also inhibits PdhD lipoylation in vitro at […]; assay type: binding
T1 construct: gene lplA; hexa-histidine-tagged Mhp-LplJ (pET22b)
T1 sequence (E4QSS7 1-336): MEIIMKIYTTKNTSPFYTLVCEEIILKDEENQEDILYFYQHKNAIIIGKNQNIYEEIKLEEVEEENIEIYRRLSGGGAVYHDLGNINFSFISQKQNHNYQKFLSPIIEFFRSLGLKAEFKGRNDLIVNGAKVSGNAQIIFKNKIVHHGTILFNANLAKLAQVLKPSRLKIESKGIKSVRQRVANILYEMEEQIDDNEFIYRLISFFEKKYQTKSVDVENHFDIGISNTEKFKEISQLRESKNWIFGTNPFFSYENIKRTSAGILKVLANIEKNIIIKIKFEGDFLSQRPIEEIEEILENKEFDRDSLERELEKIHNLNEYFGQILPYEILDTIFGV

[2] = target: T1, Mhp-LplJ (lipoate-protein ligase, MHP_RS00640); assay: SPR (Biacore 8K, CM5, immobilized Mhp-LplJ), single-site kinetics fit; assay type: binding
[3] = target: T2, E. coli LplA (lipoate-protein ligase A) (Escherichia coli, UniProt P32099); assay: in vitro lipoate ligation to apo-PdhD, anti-lipoic acid western blot (positive control enzyme); assay type: biochemical
T2 construct: hexa-histidine-tagged E. coli LplA (pET32a)
T2 sequence (P32099 2-338): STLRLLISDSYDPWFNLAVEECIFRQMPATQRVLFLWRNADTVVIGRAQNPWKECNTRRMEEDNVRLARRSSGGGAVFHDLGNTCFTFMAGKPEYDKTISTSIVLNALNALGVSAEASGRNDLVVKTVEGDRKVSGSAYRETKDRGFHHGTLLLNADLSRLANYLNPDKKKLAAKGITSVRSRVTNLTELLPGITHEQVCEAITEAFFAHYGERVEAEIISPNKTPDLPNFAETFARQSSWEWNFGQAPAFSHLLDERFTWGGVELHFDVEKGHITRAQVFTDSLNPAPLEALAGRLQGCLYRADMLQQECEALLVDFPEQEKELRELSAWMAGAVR

[4] = target: T1, Mhp-LplJ (lipoate-protein ligase, MHP_RS00640); assay: in vitro octanoate ligation to apo-PdhD, gel shift assay; assay type: biochemical

O=C(O)CCCCCCCBr [8-BrO, 8-bromooctanoic acid]
Kd [1]: 29.8 ± 3.62 µM

O=C(O)CCCC[C@@H]1CCSS1 [lipoic acid, (R)-5-(1,2-dithiolane-3-yl) pentanoic acid]
Kd [2]: 24.1 ± 1.61 µM
in vitro lipoate ligation to apo-PdhD, anti-lipoic acid western blot (positive c) [3]: PdhD was successfully modified by E. coli LplA in vitro in the presence of lipoic acid

CCCCCCCC(=O)O [octanoic acid]
in vitro octanoate ligation to apo-PdhD, gel shift assay [4]: Mhp-LplJ could able to catalyze the attachment of free octanoic acid to PdhD
